Data taken from patent US20060069132A1, “Azolecarboxamide herbicides” (priority 2004, published 2006).

Tests used:
[1] = system: bermudagrass; assay: Test C pre-/postemergence herbicide test; assay type: in vivo, Cynodon dactylon; details: for Plant response rating, Bermudagrass / Plant response rating (0 = no effect, 100 = complete control), Bermudagrass: preemergence; for Bermudagrass plant response rating: Preemergence
Method in brief: (§1)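 Greenhouse-grown plants were evaluated visually 12 to 14 days after treatment, with 100 meaning complete control and 0 no effect. Application was preemergence, or postemergence at 2 to 18 cm.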

[2] = system: soybean; assay: Test C pre-/postemergence herbicide test; assay type: in vivo, Glycine max; details: for Plant response rating, Soybean / Plant response rating (0 = no effect, 100 = complete control), Soybean: preemergence
Method in brief: as §1

[3] = system: velvetleaf; assay: Test B pre-/postemergence herbicide test; assay type: in vivo, Abutilon theophrasti
Method in brief: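 Herbicidal effect was judged by eye on a 0–100 scale after plants stood 13 to 15 days in the greenhouse following pre- or postemergence treatment with surfactant-containing formulations.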

[4] = system: eastern black nightshade; assay: Test C pre-/postemergence herbicide test; assay type: in vivo, Solanum ptycanthum; details: for Plant response rating, Nightshade / Plant response rating (0 = no effect, 100 = complete control), Nightshade: preemergence
Method in brief: as §1

[5] = system: johnsongrass; assay: Test C pre-/postemergence herbicide test; assay type: in vivo, Sorghum halepense; details: for Plant response rating, Johnsongrass / Plant response rating (0 = no effect, 100 = complete control), Johnsongrass: preemergence
Method in brief: as §1

[6] = system: cocklebur; assay: Test C pre-/postemergence herbicide test; assay type: in vivo, Xanthium strumarium; details: for Plant response rating, Cocklebur / Plant response rating (0 = no effect, 100 = complete control), Cocklebur: preemergence; for Cocklebur plant response rating: Preemergence, scale 0 to 100, 0 no effect, 100 complete control
Method in brief: as §1

[7] = 62 g ai/ha, scale 0 to 100, 0 no effect, 100 complete control
[8] = 500 g ai/ha, scale 0 to 100 (0 no effect, 100 complete control), visual, 12 to 14 days
[9] = 125 g ai/ha, visual rating, scale 0 (no effect) to 100 (complete control), postemergence
[10] = 125 g ai/ha, scale 0 (no effect) to 100 (complete control), visual, 12 to 14 days
[11] = 250 g ai/ha, scale 0 to 100 (0 no effect, 100 complete control), visual, 12 to 14 days
[12] = 500 g ai/ha, scale 0 to 100, 0 no effect, 100 complete control
[13] = Preemergence, 500 g ai/ha, scale 0 to 100, 0 no effect, 100 complete control

SMILES | Plant response rating, Bermudagrass [1, 7] | Plant response rating, Bermudagrass ([1]; 250 g ai/ha, scale 0-100) | Plant response rating, Soybean ([2]; 62 g ai/ha, scale 0 to 100) | Plant response rating, Soybean ([2]; 250 g ai/ha, scale 0-100) | Plant response rating, Soybean [2, 8] | Velvetleaf plant response rating [3, 9] | Plant response rating, Nightshade ([4]; 62 g ai/ha, scale 0 to 100) | Plant response rating, Nightshade ([4]; 250 g ai/ha, scale 0-100) | Plant response rating, Nightshade [4, 8] | Plant response rating, Johnsongrass ([5]; 62 g ai/ha, scale 0 to 100) | Plant response rating, Johnsongrass ([5]; 250 g ai/ha, scale 0-100) | Plant response rating, Johnsongrass [5, 8] | Plant response rating, Cocklebur ([6]; 62 g ai/ha, scale 0 to 100) | Plant response rating, Cocklebur ([6]; 250 g ai/ha, scale 0-100) | Plant response rating, Bermudagrass [1, 10] | Bermudagrass plant response rating [1, 12] | Plant response rating, Nightshade [4, 10] | Plant response rating, Johnsongrass [5, 10] | Cocklebur plant response rating ([6]; 500 g ai/ha) | other results
CCNC(=O)c1cccc(NC(=O)c2nn(C(C)(C)C)nc2C)c1 [Compound 392] | 90 | 95 | 5 | 90 | 95 | 30 | 90 | 100 | 100 | 85 | 100 | 100 | 0 | 20 | – | – | – | – | – | Plant response rating (0 = no effect, 100 = complete control), Bermudagrass ([1]; 125 g ai/ha): 90; Plant response rating, Bermudagrass [1, 8]: 95; Plant response rating (0 = no effect, 100 = complete control), Soybean ([2]; 125 g ai/ha): 80; Plant response rating (0 to 100 scale), Velvetleaf ([3]; 125 g ai/ha, 0 is no effect, 100 is complete control, preemergence): 70; Velvetleaf plant response rating ([3]; Postemergence, 500 g ai/ha, scale 0 (no effect) to 100 (complete control)): 40; Plant response rating (0 = no effect, 100 = complete control), Nightshade ([4]; 125 g ai/ha): 95; Plant response rating (0 = no effect, 100 = complete control), Johnsongrass ([5]; 125 g ai/ha): 100; Plant response rating (0 = no effect, 100 = complete control), Cocklebur ([6]; 125 g ai/ha): 5; Plant response rating, Cocklebur [6, 8]: 80
CCN(C)C(=O)c1cccc(NC(=O)c2cc(C(C)(C)C)nn2CC)c1 [Compound 48] | – | – | – | – | – | – | – | – | – | – | – | – | – | – | 90 | 95 | 80 | 20 | 10 | Plant response rating (0 = no effect, 100 = complete control), Bermudagrass ([1]; 62 g ai/ha): 80; Plant response rating, Bermudagrass [1, 11]: 90; Plant response rating (0 = no effect, 100 = complete control), Soybean ([2]; 62 g ai/ha): 0; Plant response rating, Soybean [2, 10]: 0; Plant response rating, Soybean [2, 11]: 0; Soybean plant response rating [2, 13]: 30; Plant response rating, Velvetleaf ([3]; Postemergence, 500 g ai/ha, visual rating after 13 to 15 days, scale 0 (no effect) to 100 (complete control)): 80; Velvetleaf plant response rating ([3]; Preemergence, 500 g ai/ha, scale 0 to 100): 100; Plant response rating, Velvetleaf ([3]; preemergence, 125 g ai/ha, 0 to 100 scale, 0 is no effect, 100 is complete control): 90; Plant response rating (0 = no effect, 100 = complete control), Nightshade ([4]; 62 g ai/ha): 50; Plant response rating, Nightshade [4, 11]: 95; Nightshade plant response rating [4, 13]: 100; Plant response rating (0 = no effect, 100 = complete control), Johnsongrass ([5]; 62 g ai/ha): 10; Plant response rating, Johnsongrass [5, 11]: 50; Johnsongrass plant response rating [5, 13]: 85; Plant response rating (0 = no effect, 100 = complete control), Cocklebur ([6]; 62 g ai/ha): 0; Plant response rating, Cocklebur [6, 10]: 0; Plant response rating, Cocklebur [6, 11]: 0
CCc1nn(C(C)(C)C)cc1C(=O)Nc1cc(C(=O)N(C)C)ccn1 [Compound 293] | 90 | 100 | 0 | 90 | 100 | 10 | 65 | 100 | 100 | 65 | 100 | 100 | 0 | 20 | 95 | 100 | 100 | 95 | 60 | Plant response rating, Velvetleaf ([3]; 500 g ai/ha, visual rating, 0 = no effect, 100 = complete control, preemergence): 100; Velvetleaf plant response rating ([3]; postemergence, 500 g ai/ha, scale 0 to 100, 0 is no effect, 100 is complete control): 30
